Reference: US20120208781A1, “AMINOGLYCOSIDE DOSING REGIMENS” (Achaogen, Inc., priority 2009, published 2012)
≈ marks a conversion by molar mass, not a printed value. Entries after “also recorded” stand apart in the source; their conditions may differ.

Assays:
[1] = tested on: cochlear function, vestibular function; assay: First-in-human phase 1 study: cochlear and vestibular function (ototoxicity); assay type: in vivo; settings: healthy volunteers
Protocol: Safety evaluation was based on clinical observations, vital sign measurements, laboratory tests, physical examination, electrocardiogram, cochlear function, vestibular function testing, and reported adverse events. Cochlear function was evaluated by pure tone audiometry with bone conduction and otoacoustic emission (OAE) testing. Vestibular function was evaluated by electronystagmography (ENG) and Dynamic Visual Acuity (DVA) test. Laboratory tests included complete blood count (CBC), serum chemistries, and urinalysis. BUN and creatinine (Cr) were assessed daily on dosing days to allow the Investigator to monitor renal function. Results were used as criteria for dose escalation. The glomerular filtration rate (GFR) was estimated using iothalamate plasma measurements before dosing and after the multiple dose periods. GFR was also assessed by Cr clearance before dosing and after the multiple dose periods.
Complete physical examinations and ECGs were completed at screen and 2 days after the last multiple-dose. Abbreviated physical examinations were completed prior to the single-dose and prior to the first multiple-dose (those receiving IMP for 10 days have an additional examination prior to the 6th multiple-dose infusion). Vital signs were assessed at screen and all visits during treatment period. Additional safety assessments, including pure tone audiometry and ENG caloric, testing was performed or will be performed at 3 and 6 months after the last dose. Concomitant therapies and adverse events are assessed throughout the screen and treatment period.

[2] = In vitro stability in plasma, microsomes and hepatocytes; assay type: in vitro ADME; settings: liver microsomes and hepatocytes
Protocol: Bioanalytical data analyses were carried out using Analyst software (version 1.4.1, Applied Biosystems, Toronto, ON, Canada). […] PK parameters were determined by noncompartmental analysis using WinNonLin. Plasma protein binding was determined using equilibrium dialysis. In vitro stability was determined using commercially available plasma, microsomes and hepatocytes.

[3] = Prediction of human plasma levels and half-life of Compound 1 from mouse, rat and dog data (allometric scaling); settings: humans
Protocol: The PK profile of Compound 1 supports use of high doses in short infusions, administered once-daily to achieve high Cmax and AUC, which are important for both efficacy and safety.
In the phase 1 clinical studies described herein, Compound 1 was administered over a short infusion time period of 10 minutes. Based upon allometric scaling of the mouse, rat and dog nonclinical data, the Cmax associated with longer infusion time periods was predicted, as summarized in Table 21. As shown, longer infusion time periods are associated with lower Cmax, resulting in a lower Cmax to AUC ratio.

S. aureus (SA) = assay: MIC, CLSI broth microdilution, worldwide isolates: S. aureus; assay type: cell-based
Description: (§1) In the first study, a total of 235 isolates were collected from medical centers worldwide and tested for susceptibility to Compound 1 and comparator agents by CLSI broth microdilution methods. […] Non-ENT GN pathogens included WT P. aeruginosa (PSA) and Acinetobacter spp. (ACB), and carbapenem (CARB)-R strains, including those with MBL and OXA enzymes, SA and coagulase-negative staphylococci (CoNS) included oxacillin-susceptible (MSSA/MS-CoNS) and —R (MRSA/MR-CoNS) strains.
(§2) Minimum inhibitory concentrations (MIC) were determined by reference Clinical and Laboratory Standards Institute (CLSI) broth microdilution methods per M7-A7 [2006]. Briefly, serial two-fold dilutions of Compound 1 and comparator AGs (together, “the test compounds”) were prepared at 2× concentration in appropriate diluent. The dilutions were mixed in 96-well assay plates with bacterial inoculum. Bacteria were suspended in sterile saline and added to each assay plate to obtain a final concentration of 5.5×10^5 CFU/mL. The plates were incubated at 35° C. for 20 hours in ambient air. […] After incubation, assay plates were read using a microtiter plate reader at 600 nm.

hearing function = assay: 28-day guinea pig ototoxicity study of Compound 1: ABR and observations
Protocol: Additionally, four groups of four male and four female animals were utilized for toxicokinetic (TK) sampling and received the control or test article in the same manner as the main study groups at respective dose levels of 0 (Vehicle Control), 8, 30, or 80 mg/kg.
Physical examinations were conducted pretest on all animals and prior to study termination for main study animals. […] Blood samples for determination of the plasma concentrations of the test article were collected from TK animals at designated time points on Day 1 and Day 14. After blood collection, the TK animals were euthanized and the carcasses were discarded.

Acinetobacter spp. (ACB) = assay: MIC, CLSI broth microdilution, worldwide isolates: Acinetobacter spp.; assay type: cell-based
Description: as §1, §2

Enterobacter spp. (EB) = assay: MIC, broth microdilution, Brooklyn hospital isolates: Enterobacter spp.; assay type: cell-based; settings: Enterobacter; EB (n = 30)
Protocol: (§3) In another study, the activity of Compound 1 against a collection of contemporary Gram-negative bacteria was determined. Unique patient isolates of P. aeruginosa (PA), A. baumannii (AB), K. pneumoniae (KP), E. coli (EC), and Enterobacter spp. (EB) from prior surveys at 16 Brooklyn, N.Y. hospitals were selected based on resistance patterns. The majority of isolates were fingerprinted by automated ribotyping. MICs were performed by broth microdilution. PCR was used to identify aminoglycoside-modifying enzymes (AMEs) in AB and KP and the KPC gene in Enterobacteriaceae (EN). The expression of the efflux genes mexA, C, E and X in PA, and adeB in AB was assessed by real-time RT-PCR.

[4] = First-in-human phase 1 study: urine levels of Compound 1; assay type: in vivo; settings: Cohort 4 (15 mg/kg)
Protocol: Pooled urine samples for PK analysis were obtained with the single dose and first and last multiple-dose.
The levels of Compound 1 present in the urine of Cohort 4 patients during the 24 hours following administration of the third multi-dose was also examined. […] Perhaps of even greater significance, the concentration of Compound 1 achieved in the urine was at least 1 mg/ml immediately following administration, and remained over 0.1 mg/ml for 12 hours.

P. aeruginosa (PA) = assay: MIC, broth microdilution, Brooklyn hospital isolates: P. aeruginosa; assay type: cell-based; settings: Pseudomonas aeruginosa; PA (n = 33)
Protocol: as §3

[5] = Staphylococcus aureus, SA isolates

SMILES: CN[C@@H]1[C@@H](O)[C@@H](O[C@@H]2[C@@H](O)[C@H](O[C@H]3OC(CNCCO)=CC[C@H]3N)[C@@H](N)C[C@H]2NC(=O)[C@@H](O)CCN)OC[C@]1(C)O [Compound 1, 6′-(2-Hydroxy-ethyl)-1-(4-amino-2(S)-hydroxy-butyryl)-sisomicin]
- cochlear function (pure tone audiometry, bone conduction, OAE) [1]: did not reveal any treatment related effects
- ototoxicity signal [1]: No ototoxocity signal
- vestibular function (ENG and DVA) [1]: did not reveal any treatment related effects
- in vitro stability [2]: stable
- predicted Cmax with longer infusion time periods [3]: lower Cmax
- Cumulative % inhibited at Cmpd. MIC 1 (S. aureus (SA); SA (30)): 96.7%
- Cumulative % inhibited at Cmpd. MIC 2 (S. aureus (SA); SA (30)): 100.0%
- Cumulative % inhibited at Cmpd. MIC ≦0.5 (S. aureus (SA); SA (30)): 66.7%
- Cumulative % inhibited at Cmpd. MIC 1 (S. aureus (SA); SA, MRSA (20)): 100.0%
- Cumulative % inhibited at Cmpd. MIC ≦0.5 (S. aureus (SA); SA, MRSA (20)): 60.0%
- Cumulative % inhibited at Cmpd. MIC 1 (S. aureus (SA); SA, MSSA (10)): 90.0%
- Cumulative % inhibited at Cmpd. MIC 2 (S. aureus (SA); SA, MSSA (10)): 100.0%
- Cumulative % inhibited at Cmpd. MIC ≦0.5 (S. aureus (SA); SA, MSSA (10)): 80.0%
- MIC50 (S. aureus (SA); [5]): ≤ 0.25 µg/mL
- MIC90 (S. aureus (SA); [5]): 0.5 µg/mL (≈ 0.844 µM)
- animals with elevation of ABR thresholds (mild, 4 and 10 kHz, conductive) (hearing function; guinea pigs, 8 mg/kg dose group): one male and one female
- ABR pre- to post-dosing hearing threshold shift (hearing function; guinea pigs, 8, 30, 80 mg/kg for 14 days, 4, 10, 20 kHz): no significant pre- to post-dosing hearing threshold shift at any frequency; also recorded: did not have an adverse effect
- functional hearing loss (ABR) (hearing function; guinea pigs, 14 days, up to 80 mg/kg/day): no functional hearing loss; also recorded: None of the animals treated with Compound 1 at any dose showed any functional hearing loss
- mortality and general observations (hearing function; guinea pigs, SC 8, 30, 80 mg/kg for 14 days): did not produce mortality and was without effect on clinical observations, body weights, physical examinations, ABR evaluations, macroscopic findings, middle ear assessments, or ossicle mobility
- Cumulative % inhibited at Cmpd. MIC 1 (Acinetobacter spp. (ACB); ACB (30)): 10.0%
- Cumulative % inhibited at Cmpd. MIC 2 (Acinetobacter spp. (ACB); ACB (30)): 23.3%
- Cumulative % inhibited at Cmpd. MIC 4 (Acinetobacter spp. (ACB); ACB (30)): 26.7%
- Cumulative % inhibited at Cmpd. MIC 8 (Acinetobacter spp. (ACB); ACB (30)): 66.7%
- Cumulative % inhibited at Cmpd. MIC 16 (Acinetobacter spp. (ACB); ACB (30)): 70.0%
- Cumulative % inhibited at Cmpd. MIC 32 (Acinetobacter spp. (ACB); ACB (30)): 90.0%
- Cumulative % inhibited at Cmpd. MIC 64 (Acinetobacter spp. (ACB); ACB (30)): 100.0%
- Cumulative % inhibited at Cmpd. MIC ≦0.5 (Acinetobacter spp. (ACB); ACB (30)): 3.3%
- Cumulative % inhibited at Cmpd. MIC 1 (Acinetobacter spp. (ACB); ACB, CARB-R (20)): 15.0%
- Cumulative % inhibited at Cmpd. MIC 2 (Acinetobacter spp. (ACB); ACB, CARB-R (20)): 30.0%
- Cumulative % inhibited at Cmpd. MIC 4 (Acinetobacter spp. (ACB); ACB, CARB-R (20)): 30.0%
- Cumulative % inhibited at Cmpd. MIC 8 (Acinetobacter spp. (ACB); ACB, CARB-R (20)): 70.0%
- Cumulative % inhibited at Cmpd. MIC 16 (Acinetobacter spp. (ACB); ACB, CARB-R (20)): 75.0%
- Cumulative % inhibited at Cmpd. MIC 32 (Acinetobacter spp. (ACB); ACB, CARB-R (20)): 95.0%
- Cumulative % inhibited at Cmpd. MIC 64 (Acinetobacter spp. (ACB); ACB, CARB-R (20)): 100.0%
- Cumulative % inhibited at Cmpd. MIC ≦0.5 (Acinetobacter spp. (ACB); ACB, CARB-R (20)): 5.0%
- Cumulative % inhibited at Cmpd. MIC 1 (Acinetobacter spp. (ACB); ACB, WT (10)): 0.0%
- Cumulative % inhibited at Cmpd. MIC 2 (Acinetobacter spp. (ACB); ACB, WT (10)): 10.0%
- Cumulative % inhibited at Cmpd. MIC 4 (Acinetobacter spp. (ACB); ACB, WT (10)): 20.0%
- Cumulative % inhibited at Cmpd. MIC 8 (Acinetobacter spp. (ACB); ACB, WT (10)): 60.0%
- Cumulative % inhibited at Cmpd. MIC 16 (Acinetobacter spp. (ACB); ACB, WT (10)): 60.0%
- Cumulative % inhibited at Cmpd. MIC 32 (Acinetobacter spp. (ACB); ACB, WT (10)): 80.0%
- Cumulative % inhibited at Cmpd. MIC 64 (Acinetobacter spp. (ACB); ACB, WT (10)): 100.0%
- Cumulative % inhibited at Cmpd. MIC ≦0.5 (Acinetobacter spp. (ACB); ACB, WT (10)): 0.0%
- MIC50 (Acinetobacter spp. (ACB); Acinetobacter, ACB isolates): 8 µg/mL (≈ 13.5 µM)
- MIC90 (Acinetobacter spp. (ACB); Acinetobacter, ACB isolates): 32 µg/mL (≈ 54 µM)
- MIC50 (Enterobacter spp. (EB)): 1 µg/mL (≈ 1.69 µM)
- MIC90 (Enterobacter spp. (EB)): 4 µg/mL (≈ 6.75 µM)
- urine concentration immediately following administration [4]: at least 1 mg/ml
- urine concentration maintained for 12 hours [4]: over 0.1 mg/ml
- administered Compound 1 excreted within 24 hours (upper estimate) ([4]; after third multi-dose): about 90%
- average fraction excreted in urine in an unchanged form over 24 hours ([4]; after third multi-dose): 75%
- MIC50 (P. aeruginosa (PA)): 8 µg/mL (≈ 13.5 µM)
- MIC90 (P. aeruginosa (PA)): 16 µg/mL (≈ 27 µM)
